Where two headings read alike, the source gives them in different places.
Molecular target: T1, Stp1/Stp4/Stp3 subcomplex (Mycosarcoma maydis, UniProt A0A0D1C5E3+A0A0D1CU07+A0A0D1EAN2)
T1 sequence (A0A0D1CU07 29-515): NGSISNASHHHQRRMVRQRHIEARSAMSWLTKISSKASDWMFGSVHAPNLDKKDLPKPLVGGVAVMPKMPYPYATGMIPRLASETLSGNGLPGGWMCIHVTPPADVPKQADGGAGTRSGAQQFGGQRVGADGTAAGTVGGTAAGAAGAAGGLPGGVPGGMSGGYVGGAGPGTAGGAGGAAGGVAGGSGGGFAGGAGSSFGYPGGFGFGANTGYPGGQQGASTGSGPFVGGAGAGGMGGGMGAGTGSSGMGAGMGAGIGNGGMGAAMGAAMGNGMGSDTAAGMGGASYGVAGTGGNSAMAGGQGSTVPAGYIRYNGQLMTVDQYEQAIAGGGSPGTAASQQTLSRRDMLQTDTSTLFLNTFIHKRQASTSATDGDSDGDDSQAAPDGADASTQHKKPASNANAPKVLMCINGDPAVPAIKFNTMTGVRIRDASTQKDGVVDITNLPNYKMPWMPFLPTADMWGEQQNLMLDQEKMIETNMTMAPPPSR
T1 sequence (A0A0D1C5E3 24-129): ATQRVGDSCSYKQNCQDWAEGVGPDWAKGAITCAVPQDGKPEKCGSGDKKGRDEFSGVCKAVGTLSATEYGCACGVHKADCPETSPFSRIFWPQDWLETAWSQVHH
T1 sequence (A0A0D1EAN2 25-327): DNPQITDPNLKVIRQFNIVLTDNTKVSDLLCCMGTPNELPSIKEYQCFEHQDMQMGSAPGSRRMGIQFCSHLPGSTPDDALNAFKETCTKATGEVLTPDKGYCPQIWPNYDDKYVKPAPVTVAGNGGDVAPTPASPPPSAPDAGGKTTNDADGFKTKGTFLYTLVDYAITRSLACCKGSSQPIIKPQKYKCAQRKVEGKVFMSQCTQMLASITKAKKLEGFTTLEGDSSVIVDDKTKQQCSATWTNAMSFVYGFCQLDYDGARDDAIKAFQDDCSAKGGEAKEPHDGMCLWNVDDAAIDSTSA
Experiment: Alamar Blue viability assay in S. cerevisiae 2-hybrid strain NL73 (viability depends on Stp complex formation)
Assay type: cell-based, U. maydis
Source text: To develop a screening platform based on Stp complex formation, a Saccharomyces cerevisiae 2-hybrid system was used. […] After co-transformation, reporter gene transcription is activated only if the two fusion proteins interact in the yeast nucleus. Moreover, the S. cerevisiae strain AH109 harbours the reporter genes ADE2 and HIS3, which encode for two enzymes that are crucial for adenine (Ade) and histidine (His) biosynthesis and thereby enable nutritional selection as a read-out for the interaction between proteins. In the following experiments, growth on high-stringency synthetic defined (SD) medium (SD -Leu -Trp -Ade -His) was used to identify if the complex members interact between them causing expression of ADE2 and HIS3. Additionally, strains were also grown on low-stringency medium (SD -Leu -Trp) to confirm their viability. […] All experiments were done with three independent transformants to exclude false positives due to spontaneous mutations.
The S. cerevisiae strain AH109 from Clontech (Saint-Germain-en-Laye, France) is auxotrophic for tryptophan, leucine, adenine and histidine. In addition, lacz is under control of the MEL1 UAS to be used as readout for quantitative β-galactosidase assays.
The resulting test strain NL73 (AD-Stp4/BD-Stp1/myc-Stp3) expresses the Stp1/Stp4/Stp3 subcomplex. NL73 carries the following three plasmids: pGBKT7-stp1: pGBKT7 vector expressing proteins fused to the GAL4 DNA binding domain (DNA-BD). pGBKT7 also contains the T7 promoter, a c-Myc epitope tag, and a MCS. The vector carries a Kanamycin resistance gene (Kanr) for selection in E. coli and the TRP1 nutritional marker for selection in yeast. pGAD-stp4: pGADT7 vector expressing proteins fused to a GAL4 activation domain (AD). The GAL4 AD fusion contains an N-terminal nuclear localization signal that targets the protein to the yeast nucleus, and a HA Tag, located between the GAL4 AD and the protein of interest. The vector carries an ampicillin resistance gene (Ampr) for selection in E. coli and a LEU2 nutritional marker for selection in yeast. pYEA-stp3-myc: pYEA vector expressing proteins under the control of the phosphoglycerate kinase promoter. The vector carries an ampicillin resistance gene (Ampr) for selection in E. coli and an ADE2 nutritional marker for selection in yeast. As control strain, NL70 containing empty vectors was generated (AH109Δabc9 pGAD::LEU2 pGBK::TRP1 pYEA::ADE2).
After that, 25 µl of NL73 cell suspension were dispensed into the assay plates using Multidrop Combi (Thermofisher Scientific) giving a final screening concentration of 10 µM. One column of the assay plate was filled with 25 µl of NL70 control strain cell suspension as negative control. Plates were sealed with Breathe-Easy sealing membrane (Sigma, Z380059), lidded and incubated in a humid chamber over night at 30°C and 140 rpm in an HT Multitron Pro (Infors). […] For the viability assay, the alamar Blue HS Cell Viability reagent (Invitrogen, #A50101) was pre-diluted using an equal amount of dVE-H2O and 5 µl of diluted Alamar Blue were added to the screening plates using Multidrop Combi. The plates were sealed again and incubated for 4 h at room temperature, unlidded. […] Screening data was normalized to DMSO-treated NL73 cells (that received DMSO in the same concentration as in samples where compounds dissolved in DMSO were added) being 100% and DMSO-treated NL70 cells representing 0% viability and analyzed with Quattro Software Suite (Quattro Research GmbH).

[1] = Alamar Blue assay, Table 8, read-out: IC50
[2] = inhibitory activity on NL73 viability, Table 6, read-out: IC50

| Structure (SMILES) | IC50 [1] | IC50 (Alamar Blue assay, Table 8) | IC50 [2] |
| --- | --- | --- | --- |
| O=S(=O)(Nc1cnc2c(cnn2C2CCCCC2)c1)c1cc(F)ccc1F [Compound 3-B] | 2.2 µM |  |  |
| O=S(=O)(Nc1cnc2[nH]ncc2c1)c1cc(F)ccc1F [Ref2-B, reference compound] |  | inactive |  |
| Cn1ncc2cc(NS(=O)(=O)c3cc(F)ccc3F)cnc21 [Compound 4-B] | 10.2 µM |  |  |
| CCn1c2c(c(SCc3cccc(C)c3)nc1=O)CCC2 [Compound 2-C] |  |  | 6.2 µM |
| CCCn1c2c(c(SCc3ccccc3F)nc1=O)CCC2 [Compound 3-C] |  |  | 6.4 µM |
| CC(C)n1ncc2cc(NS(C)(=O)=O)cnc21 [Ref1-B, reference compound] |  | inactive |  |

— patent publication EP4039094A1, “NOVEL ANTIFUNGAL COMPOUNDS” (Max-Planck-Gesellschaft zur Förderung der Wissenschaften …, priority 2021, dated 2022)
